Assay results as given in patent publication US10329261B1, “Method of preparing 6-chloro-5-nitro-2,4-diaminopyrimidine and its application thereof” (XI'AN TAIKOMED PHARMACEUTICAL TECHNOLOGY CO., LTD., priority 2018, dated 2019).

Columns and labels:
Jurkat = experiment: CCK8 assay, growth inhibition of leukemia cells; format: cell-based; settings: for inhibition at 1 µM / inhibition at 5 µM / inhibition at 10 µM / inhibition at 50 µM / inhibition at 100 µM: Homo sapiens, 48 hours, read-out: Inhibition Rate % (X ± SD, n = 5); for inhibition at 1 µM: 1 μmol/L; for inhibition at 5 µM: 5 μmol/L; for inhibition at 10 µM: 10 μmol/L; for inhibition at 50 µM: 50 μmol/L; for inhibition at 100 µM: 100 μmol/L
Description: (§1) Measuring the Inhibitory Effect of 6-Chloro-5-Nitro-2,4-Diaminopyrimidine on the Growth of Six Leukemia Cells by CCK8 Assay
(§2) Cell lines: HL-60 (acute myeloid leukemia), Jurkat (acute T cell leukemia), K562 (chronic myeloid leukemia), EOL-1 (human eosinophil leukemia), Dami (human megakaryocytic leukemia), 6T-CEM (human T cell leukemia) were provided by the Affiliated Hospital of Guangdong Medical College. The cells were cultured in RPMI1640 medium containing 10% fetal bovine serum, penicillin 100 U/mL, streptomycin 100 mg/L, at 37° C., 5% CO2, and saturated humidity, in incubator, and logarithmic growth phase cells were used for experiments.
(§3) Test compounds: Imatinib solution and 6-chloro-5-nitro-2,4-diaminopyrimidine solution were prepared with physiological saline, and the final concentrations of the compounds were 1, 5, 10, 50, and 100 μmol/L.
(§4) Test method: Take the logarithmic growth leukemia cell lines, count, and inoculate at a density of 1×10^5/mL in a 96-well culture plate, 100 μL per well. After 24 hours of culture, 100 μL medium containing the different concentrations (double the target/final concentration) of compounds was added to each well. The medium containing the highest concentration of DMSO was used as a control. After 48 hours, 20 μL of CCK8 coloring solution was added to each well, the color was developed at 37° C., and OD450 was measured with a microplate reader until the absorbance was about 1.5. The inhibition rate was calculated by the following formula. Inhibition Rate (%)=(1−absorbance of the test compound/absorbance of the control)×100%

HL-60 = experiment: CCK8 assay, growth inhibition of leukemia cells; format: cell-based; settings: for inhibition at 1 µM / inhibition at 5 µM / inhibition at 10 µM / inhibition at 50 µM / inhibition at 100 µM: Homo sapiens, 48 hours, read-out: Inhibition Rate % (X ± SD, n = 5); for inhibition at 1 µM: HL-60, 1 μmol/L; for inhibition at 5 µM: HL-60, 5 μmol/L; for inhibition at 10 µM: HL-60, 10 μmol/L; for inhibition at 50 µM: HL-60, 50 μmol/L; for inhibition at 100 µM: HL-60, 100 μmol/L
Description: as §1, §2, §3, §4

K-562 = experiment: CCK8 assay, growth inhibition of leukemia cells; format: cell-based; settings: for inhibition at 1 µM / inhibition at 5 µM / inhibition at 10 µM / inhibition at 50 µM / inhibition at 100 µM: Homo sapiens, K562, 48 hours, read-out: Inhibition Rate % (X ± SD, n = 5); for inhibition at 1 µM: K-562, 1 μmol/L; for inhibition at 5 µM: K-562, 5 μmol/L; for inhibition at 50 µM: K-562, 50 μmol/L; for inhibition at 100 µM: K-562, 100 μmol/L
Description: as §1, §2, §3, §4

EOL-1 = experiment: CCK8 assay, growth inhibition of leukemia cells; format: cell-based, human; settings: for inhibition at 1 µM / inhibition at 5 µM / inhibition at 10 µM / inhibition at 50 µM / inhibition at 100 µM: Homo sapiens, EOL1, 48 hours, read-out: Inhibition Rate % (X ± SD, n = 5); for inhibition at 1 µM: EOL-1, 1 μmol/L; for inhibition at 5 µM: EOL-1, 5 μmol/L; for inhibition at 10 µM: EOL-1, 10 μmol/L; for inhibition at 50 µM: EOL-1, 50 μmol/L; for inhibition at 100 µM: EOL-1, 100 μmol/L
Description: as §1, §2, §3, §4

6T-CEM = experiment: CCK8 assay, growth inhibition of leukemia cells; format: cell-based, human; settings: for inhibition at 1 µM / inhibition at 5 µM / inhibition at 10 µM / inhibition at 50 µM / inhibition at 100 µM: Homo sapiens, 48 hours, read-out: Inhibition Rate % (X ± SD, n = 5); for inhibition at 1 µM: 1 μmol/L; for inhibition at 5 µM: 5 μmol/L; for inhibition at 10 µM: 10 μmol/L; for inhibition at 50 µM: 50 μmol/L; for inhibition at 100 µM: 100 μmol/L
Description: as §1, §2, §3, §4

Dami = experiment: CCK8 assay, growth inhibition of leukemia cells; format: cell-based, human; settings: for inhibition at 1 µM / inhibition at 5 µM / inhibition at 10 µM / inhibition at 50 µM / inhibition at 100 µM: Homo sapiens, 48 hours, read-out: Inhibition Rate % (X ± SD, n = 5); for inhibition at 1 µM: 1 μmol/L; for inhibition at 5 µM: 5 μmol/L; for inhibition at 10 µM: 10 μmol/L; for inhibition at 50 µM: 50 μmol/L; for inhibition at 100 µM: 100 μmol/L
Description: as §1, §2, §3, §4

K-562 leukemia = experiment: Inhibition test of nude mice inoculated with K-562 cell line; format: in vivo; settings: for Tumor weight (X ± SE) / Inhibition (%): ip × 7, nude mice with K-562; for Tumor weight (X ± SE): in g (unit assumed); for Inhibition (%): tumor inhibition rate
Description: Inhibition Test of Nude Mice Inoculated with K-562 Cell Line
Test compounds: 6-chloro-5-nitro-2,4-diaminopyrimidine and imatinib dissolved in normal saline.
Administration route: intraperitoneal injection (ip).
Test animals: nude mice, SPF level.
Cell line: chronic myeloid leukemia cell line K-562, from the Affiliated Hospital of Guangdong Medical College
Test method: 50 nude mice weighing 18-22 grams, both male and female. The K-562 cell was diluted to a final concentration of 10 million cells/mL for leukemia cells; each mouse was inoculated subcutaneously with 0.2 mL (containing […] leukemia cells). On the next day, the mice were randomly divided to 5 groups: 6-chloro-5-nitro-2,4-diaminopyrimidine group (dose: 3 mg/kg), 6-chloro-5-nitro-2,4-diaminopyrimidine group (dose: 8 mg/kg), 6-chloro-5-nitro-2,4-diaminopyrimidine group (dose: 20 mg/kg), positive control group (imatinib, 8 mg/kg) and blank control group. The 6-chloro-5-nitro-2,4-diaminopyrimidine groups and the positive control group were administered once a day for 7 consecutive days; the blank control group was given a corresponding volume of NS liquid. No test compounds were given for one day after the last dose. Animals were sacrificed by cervical dislocation, and weighed and dissected to weigh. The tumor weights were calculated for each group. The leukemia inhibition rate was calculated according to the following formula. Tumor inhibition rate=(mean tumor weight in the control group−average tumor weight in the administration group)/mean tumor weight in the control group×100%,

Structure (SMILES): Cc1ccc(NC(=O)c2ccc(CN3CCN(C)CC3)cc2)cc1Nc1nccc(-c2cccnc2)n1 [Imatinib, reference compound]
- inhibition at 1 µM (Jurkat): 66.7%
- inhibition at 5 µM (Jurkat): 71%
- inhibition at 10 µM (Jurkat): 73.3%
- inhibition at 50 µM (Jurkat): 85.7%
- inhibition at 100 µM (Jurkat): 90.9%
- inhibition at 1 µM (HL-60): 62.2%
- inhibition at 5 µM (HL-60): 69.5%
- inhibition at 10 µM (HL-60): 64.6%
- inhibition at 50 µM (HL-60): 83.1%
- inhibition at 100 µM (HL-60): 84.5%
- inhibition at 1 µM (K-562): 66.4%
- inhibition at 5 µM (K-562): 67.9%
- inhibition at 10 µM (K-562; K-562, 10 μmol/L): 71.6%
- inhibition at 50 µM (K-562): 83.1%
- inhibition at 100 µM (K-562): 88.3%
- inhibition at 1 µM (EOL-1): 63.6%
- inhibition at 5 µM (EOL-1): 66.2%
- inhibition at 10 µM (EOL-1): 68.4%
- inhibition at 50 µM (EOL-1): 79.1%
- inhibition at 100 µM (EOL-1): 86.4%
- inhibition at 1 µM (6T-CEM): 68.2%
- inhibition at 5 µM (6T-CEM): 70.8%
- inhibition at 10 µM (6T-CEM): 74.9%
- inhibition at 50 µM (6T-CEM): 86.5%
- inhibition at 100 µM (6T-CEM): 91.3%
- inhibition at 1 µM (Dami): 61.3%
- inhibition at 5 µM (Dami): 65.4%
- inhibition at 10 µM (Dami): 69.3%
- inhibition at 50 µM (Dami): 82.1%
- inhibition at 100 µM (Dami): 89.4%
- Number of mice before and after (K-562 leukemia; 8 mg/kg, ip × 7): 10/10
- Tumor weight (X ± SE) (K-562 leukemia; 8 mg/kg): 0.93
- Mouse weight after (K-562 leukemia; 8 mg/kg, ip × 7, weight before 19.5): 20.4
- Inhibition (%) (K-562 leukemia; 8 mg/kg): 74.02%

Structure (SMILES): Nc1nc(N)c([N+](=O)[O-])c(Cl)n1 [6-chloro-5-nitro-2,4-diaminopyrimidine]
- inhibitory effect on the cell line (in words) (Jurkat): does not show any inhibition
- inhibition at 1 µM (Jurkat): -13.5%
- inhibition at 5 µM (Jurkat): -15.9%
- inhibition at 10 µM (Jurkat): -27%
- inhibition at 50 µM (Jurkat): -28.1%
- inhibition at 100 µM (Jurkat): -30%
- inhibitory effect on the cell line (in words) (HL-60; HL-60): does not show any inhibition
- inhibition at 1 µM (HL-60): 3.87%
- inhibition at 5 µM (HL-60): -1.12%
- inhibition at 10 µM (HL-60): -7.66%
- inhibition at 50 µM (HL-60): -9.26%
- inhibition at 100 µM (HL-60): -14.2%
- inhibition at 1 µM (K-562): 45.5%
- inhibition at 5 µM (K-562): 61.5%
- inhibition at 10 µM (K-562; K-562, 10 μmol/L): 76.8%
- inhibition at 50 µM (K-562): 77.3%
- inhibition at 100 µM (K-562): 78.4%
- inhibition rate compared with imatinib (K-562; K-562, 10 μmol/L): exceeds that of imatinib
- inhibitory effect on the cell line (in words) (K-562; K-562 cell line): good inhibitory effect
- selectivity among the six leukemia cell lines (in words) (K-562; K-562 versus HL-60, Jurkat, EOL-1, Dami, 6T-CEM): selectively inhibits chronic myelogenous leukemia cell line
- inhibitory effect on the cell line (in words) (EOL-1; EOL-1): does not show any inhibition
- inhibition at 1 µM (EOL-1): -22.4%
- inhibition at 5 µM (EOL-1): -23%
- inhibition at 10 µM (EOL-1): -23.3%
- inhibition at 50 µM (EOL-1): -19.3%
- inhibition at 100 µM (EOL-1): -18.9%
- inhibitory effect on the cell line (in words) (6T-CEM): does not show any inhibition
- inhibition at 1 µM (6T-CEM): -17.5%
- inhibition at 5 µM (6T-CEM): -21.1%
- inhibition at 10 µM (6T-CEM): -25.5%
- inhibition at 50 µM (6T-CEM): -28.1%
- inhibition at 100 µM (6T-CEM): -31%
- inhibitory effect on the cell line (in words) (Dami): does not show any inhibition
- inhibition at 1 µM (Dami): -14.2%
- inhibition at 5 µM (Dami): -17.7%
- inhibition at 10 µM (Dami): -22%
- inhibition at 50 µM (Dami): -26%
- inhibition at 100 µM (Dami): -30.3%
- Tumor weight (X ± SE) (K-562 leukemia; 3 mg/kg): 1.84
- Tumor weight (X ± SE) (K-562 leukemia; 8 mg/kg): 0.87
- Tumor weight (X ± SE) (K-562 leukemia; 20 mg/kg): 0.74
- Inhibition (%) (K-562 leukemia; 3 mg/kg): 48.41%
- Inhibition (%) (K-562 leukemia; 8 mg/kg): 75.18%
- Inhibition (%) (K-562 leukemia; 20 mg/kg): 79.34%
